Bridge positions count the residues as written; N and C are the ends. Peptide text beside a SMILES is read from it.
Target: T1, rat ROMK (Rattus norvegicus, UniProt P35560)
T1 construct: expressed in transfected cells; host or cells: 293T cell line 208-4 (lentiviral transduction, GFP coexpressed)
T1 sequence (P35560 1-391): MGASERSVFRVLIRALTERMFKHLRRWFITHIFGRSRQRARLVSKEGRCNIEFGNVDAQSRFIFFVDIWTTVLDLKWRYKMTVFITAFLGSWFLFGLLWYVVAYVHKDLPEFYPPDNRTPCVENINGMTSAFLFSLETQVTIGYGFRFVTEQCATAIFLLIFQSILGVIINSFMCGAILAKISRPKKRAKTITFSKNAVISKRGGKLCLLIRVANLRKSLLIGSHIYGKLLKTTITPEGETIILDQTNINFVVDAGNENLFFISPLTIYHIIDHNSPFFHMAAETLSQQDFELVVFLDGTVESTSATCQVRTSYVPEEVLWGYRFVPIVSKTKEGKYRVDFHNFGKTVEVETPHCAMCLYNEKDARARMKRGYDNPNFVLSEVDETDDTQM
Assay: Whole-cell patch-clamp of ROMK currents in 208–4 cells
Assay type: cell-based
Conditions: blockade at 1 μM estimated from fitted Hill curve (four parameters), whole-cell conductance, n = 3–6, read-out: Activity (ROMK channel blocking activity, percentage of blockade at 1 μM)
Description: The cDNAs for rat ROMK and mouse GIRK1, 2, and 4 were generously donated by Drs Mikio Hayashi (Kansai Medical University) and David Weaver (Vanderbilt University). The ROMK channels were stably expressed by a cell line, 208–4, which was transduced with lentiviral vectors coexpressing the channel and green fluorescent protein (GFP) as described previously. The GIRK genes, cloned in a pCMV6 plasmid (Origene Technologies Inc, Rockville, MD), were transiently expressed in 293T cells with calcium phosphate transfection. GIRK channel currents were recorded 24 h after transfection.
Cells grown on small cover glasses (3 × 18 mm) were placed in a recording chamber. Whole-cell currents were recorded in Tyrode solution using an Axopatch 200B amplifier (Axon Instruments, Foster City, CA) at 25°C. Tyrode solution contained (in mM): NaCl 140, KCl 5.4, NaH2PO4 0.33, CaCl2 2, MgCl2 1, HEPES 5, and glucose 5.5 (pH 7.4 adjusted with NaOH). High K^+ Tyrode solution (KCL 50 mM, NaCl 95 mM, and others were the same as standard Tyrode solution) was used for the recording of GIRK channels. Patch pipettes pulled from borosilicate glass (Narishige, Tokyo, Japan) were filled with an internal solution containing (in mM): K-aspartate 66, KCl 71.5, KH2PO4 1, EGTA 5, HEPES 5, and MgATP 3 (pH 7.4 adjusted with KOH). Recordings were digitized at 10 kHz, and low-pass filtered at 2 kHz. ROMK, Kir2.1, and GIRK currents were evoked with step pulses of 400 msec from -150 mV to 10 mV in 10 mV increments from a holding potential of -70 mV. Whole-cell currents were recorded 60 sec after the peptide application and those from 100 to 300 msec of the step pulses were averaged. Liquid junction potential or capacitive transient was not corrected or compensated. Whole-cell conductance was calculated as the slope of the current-voltage (I-V) relationship from -140 mV to -100 mV and normalized to the initial value (0 μM TPN), in which BaCl2-resistant current was subtracted and indicted as a percentage.

Row | Compound | inhibition at 1 µM [%]
1 | CC[C@H](C)[C@@H]1NC(=O)[C@H](CCCNC(=N)N)NC(=O)[C@H](CCCNC(=N)N)NC(=O)[C@H](CC(N)=O)NC(=O)[C@@H](N)CSSC[C@@H](C(N)=O)NC(=O)[C@H](CCC(N)=O)NC(=O)[C@H](Cc2c[nH]cn2)NC(=O)[C@@H]2CCCN2C(=O)[C@H]([C@@H](C)CC)NC1=O [Peptide 35, TPN-RQ 5–14] (H-CNRRIIPHQC-NH2; disulfide 1-10) | < 20
2 | CC[C@H](C)[C@@H]1NC(=O)[C@H](CCCNC(=N)N)NC(=O)[C@H](CCCNC(=N)N)NC(=O)[C@H](CC(N)=O)NC(=O)[C@@H](N)CSSC[C@@H](C(N)=O)NC(=O)[C@H](CCC(N)=O)NC(=O)[C@H](CCCCN)NC(=O)[C@@H]2CCCN2C(=O)[C@H]([C@@H](C)CC)NC1=O [Peptide 36, TPN-RQ 5-14(H12K)] (H-CNRRIIPKQC-NH2; disulfide 1-10) | < 20
3 | CC[C@H](C)[C@@H]1NC(=O)[C@H](CCCNC(=N)N)NC(=O)[C@H](CCCNC(=N)N)NC(=O)[C@H](CC(N)=O)NC(=O)[C@@H](N)CSSC[C@@H](C(=O)N[C@@H](Cc2c[nH]c3ccccc23)C(=O)N[C@@H](CCCCN)C(=O)N[C@@H](CCCCN)C(N)=O)NC(=O)[C@H](CCC(N)=O)NC(=O)[C@H](Cc2c[nH]cn2)NC(=O)[C@@H]2CCCN2C(=O)[C@H]([C@@H](C)CC)NC1=O [Peptide 37, TPN-RQ 5–17] (H-CNRRIIPHQCWKK-NH2; disulfide 1-10) | < 20
4 | CC[C@H](C)[C@@H]1NC(=O)[C@H](CCCNC(=N)N)NC(=O)[C@H](CCCNC(=N)N)NC(=O)[C@H](CC(N)=O)NC(=O)[C@@H](N)CSSC[C@@H](C(=O)N[C@@H](Cc2c[nH]c3ccccc23)C(=O)N[C@@H](CCCCN)C(=O)N[C@@H](CCCCN)C(N)=O)NC(=O)[C@H](CCC(N)=O)NC(=O)[C@H](CCCCN)NC(=O)[C@@H]2CCCN2C(=O)[C@H]([C@@H](C)CC)NC1=O [Peptide 38, TPN-RQ 5-17(H12K)] (H-CNRRIIPKQCWKK-NH2; disulfide 1-10) | < 20
5 | CC[C@H](C)[C@@H]1NC(=O)[C@H](CCCNC(=N)N)NC(=O)[C@H](CCCNC(=N)N)NC(=O)[C@H](CC(N)=O)NC(=O)[C@@H](NC(=O)[C@@H](N)CC(N)=O)CSSC[C@@H](C(=O)N[C@@H](Cc2c[nH]c3ccccc23)C(=O)N[C@@H](CCCCN)C(=O)N[C@@H](CCCCN)C(N)=O)NC(=O)[C@H](CCC(N)=O)NC(=O)[C@H](Cc2c[nH]cn2)NC(=O)[C@@H]2CCCN2C(=O)[C@H]([C@@H](C)CC)NC1=O [Peptide 39, TPN-RQ 4–17] (H-NCNRRIIPHQCWKK-NH2; disulfide 2-11) | < 20
6 | CC[C@H](C)[C@@H]1NC(=O)[C@H](CCCNC(=N)N)NC(=O)[C@H](CCCNC(=N)N)NC(=O)[C@H](CC(N)=O)NC(=O)[C@@H](NC(=O)[C@@H](N)CC(N)=O)CSSC[C@@H](C(=O)N[C@@H](Cc2c[nH]c3ccccc23)C(=O)N[C@@H](CCCCN)C(=O)N[C@@H](CCCCN)C(N)=O)NC(=O)[C@H](CCC(N)=O)NC(=O)[C@H](CCCCN)NC(=O)[C@@H]2CCCN2C(=O)[C@H]([C@@H](C)CC)NC1=O [Peptide 40, TPN-RQ 4-17(H12K)] (H-NCNRRIIPKQCWKK-NH2; disulfide 2-11) | < 20
7 | CC[C@H](C)[C@@H]1NC(=O)[C@H](CCCNC(=N)N)NC(=O)[C@H](CCCNC(=N)N)NC(=O)[C@H](CC(N)=O)NC(=O)[C@H](CO)NC(=O)[C@H](CC(N)=O)NC(=O)[C@@H](N)CSSC[C@@H](C(=O)N[C@@H](Cc2c[nH]c3ccccc23)C(=O)N[C@@H](CCCCN)C(N)=O)NC(=O)[C@H](CCC(N)=O)NC(=O)[C@H](Cc2c[nH]cn2)NC(=O)[C@@H]2CCCN2C(=O)[C@H]([C@@H](C)CC)NC1=O [Peptide 41, TPN-RQ 3-16(C5S)] (H-CNSNRRIIPHQCWK-NH2; disulfide 1-12) | < 20
